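Dose response: 5 concentrations. Exposure: 48 h. Format: 96-well plates. Endpoint: linear interpolation; highest concentration if not reached. TGI denotes the concentration required for complete inhibition of growth.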
Tests used:
Assay in all cases: NCI-60 cell line screen, 48 h
[1] = system: A498 renal
[2] = system: A549 NSCLC
[3] = system: DU-145 prostate
[4] = system: HL-60(TB) leukemia
[5] = system: HT29 colon
[6] = system: LOX IMVI melanoma
[7] = system: MDA-MB-231 breast
[8] = system: MDA-MB-435
[9] = system: MDA-N
[10] = system: MOLT-4 leukemia
[11] = system: SK-OV-3 ovarian
[12] = system: SW-620 colon
[13] = system: T-47D breast

Row | Compound | TGI [1] [µM] | TGI [2] [µM] | TGI [3] [µM] | TGI [4] [µM] | TGI [5] [µM] | TGI [6] [µM] | TGI [7] [µM] | TGI [8] [µM] | TGI [9] [µM] | TGI [10] [µM] | TGI [11] [µM] | TGI [12] [µM] | TGI [13] [µM]
1 | Cc1c(C)c(S(=O)(=O)N(CCCCN)OCCCN)c(C)c2c1OC(C)(C)CC2 | 41.6 | 56.3 | 57.7 | > 100 | 40.4 | 40.4 | 99.4 | 45.1 | > 100 | 75.6 | 33.8 | > 100 | > 100
2 | CC(=O)c1ccc(Nc2c3c(nc4ccccc24)CCCC3)cc1 | > 59.7 | > 95.5 | > 65 | > 100 | 42.6 | > 41.4 | > 100 | 13.8 | 11.2 | 73.8 | > 70.8 | > 78.8 | > 52.2

— PubChem BioAssay (NCI)
